Measured values as given in US10232012B2 (INDUSTRY-ACADEMIC COOPERATION FOUNDATION, YONSEI UNIVERSITY, priority 2016, dated 2019).
Read-outs that look alike come from different tables or passages of the source. Ends that are not written are not given here.

What was measured:
PrP^SC in ScN2a cells = PrP^SC in ScN2a cells (Mus musculus, UniProt P04925); assay type: cell-based; conditions: for anti-prion activity at 30 nM: pH 7.4
[1] = assay type: physicochemical; conditions: pH 3
in vitro = conditions: mouse, ScN2a cells, pH 7.4, cell survival rate
[2] = assay type: physicochemical

Sequence of PrP^SC in ScN2a cells (P04925 23-230 limits assumed): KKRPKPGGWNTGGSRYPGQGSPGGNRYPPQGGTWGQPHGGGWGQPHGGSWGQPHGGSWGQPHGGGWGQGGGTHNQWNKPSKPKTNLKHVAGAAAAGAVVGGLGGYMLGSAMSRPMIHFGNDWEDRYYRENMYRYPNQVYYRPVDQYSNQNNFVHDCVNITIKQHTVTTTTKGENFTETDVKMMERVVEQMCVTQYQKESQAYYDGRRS

For “H-RRRRRRRRRRRRRR-GSGG-FKFEFKFEFKFE-NH2 [Example 4]”, the “anti-prion activity at 30 nM” value (PrP^SC in ScN2a cells) was “remarkably high anti-prion activity”.

In the case of “H-RRRRRRRRRRRRRRR-GSGG-FKFEFKFEFKFE-NH2 [Example 5]”, the “anti-prion activity at 30 nM” value (PrP^SC in ScN2a cells) was “remarkably high anti-prion activity”.

With N=C(N)NCCC[C@H](NC(=O)CNC(=O)CCCCCN)C(=O)N[C@@H](CCCCN)C(=O)N[C@@H](CCCCN)C(=O)N[C@@H](CCCNC(=N)N)C(=O)N[C@@H](CCCNC(=N)N)C(=O)N[C@@H](CCC(N)=O)C(=O)N[C@@H](CCCNC(=N)N)C(=O)N[C@@H](CCCNC(=N)N)C(=O)N[C@@H](CCCNC(=N)N)C(=O)N1CCC[C@H]1C(=O)N1CCC[C@H]1C(=O)N[C@@H](CCC(N)=O)C(N)=O [Comparative Example 1, reference compound] the cytotoxicity (ScN2a cells) was “remarkably low cytotoxicity”.

For “H-GRKKRRQRRRPPQ-GSGG-FKFEFKFEFKFE-NH2 [Example 1]”, the “anti-prion activity (PK-resistant PrP^SC level by western blot)” value (PrP^SC in ScN2a cells) was “gradual decrease in the PrP^SC concentration as its concentration is increased” and the “concentration at which anti-prion activity is exhibited” value (PrP^SC in ScN2a cells) was ≥ 100 nM.

With “RRRRRRRRRRRRGSGGFKFEFKFEFKFE-NH2 [R12-β SPN]” the cytotoxicity (ScN2a cells) was “moderate cytotoxicity” and the “anti-prion activity (PK-resistant PrP^SC level by western blot)” value (PrP^SC in ScN2a cells) was “comparable to that of the peptide of Example 1”.

For “RRRRRRRRRRRRGSGGFKFEFKFEFKFE-NH2 [R12-β UNS]”, the “cytotoxicity at 10 μM” value (ScN2a cells; pH 7.4) was “low toxicity”, the “anti-prion activity (PK-resistant PrP^SC level by western blot)” value (PrP^SC in ScN2a cells) was “comparable to that of the peptide Comparative Example 3” and the “fold higher anti-prion activity than R12-β SPN (fibrillar nanostructure)” value (PrP^SC in ScN2a cells) was 14.5 times.

In the case of “RRRRRRRRRRRRGSGGFKFEFKFEFKFE-NH2 [Example 3]”, the “diameter of vesicular nanostructure” value [1] was 20-90 nm, the “height of vesicular nanostructure, on average” value [1] was 1-20 nm and the “height of vesicular nanostructure, specifically” value [1] was 8-16 nm. The “width of vesicular nanostructure, on average” value [1] was 50-100 nm, the “width of vesicular nanostructure, specifically” value [1] was 70-90 nm and the cytotoxicity (ScN2a cells) was “significantly lower toxicity than the peptide of Comparative Example 3”. The “anti-prion activity (PK-resistant PrP^SC level by western blot)” value (PrP^SC in ScN2a cells) was “remarkably higher anti-prion activity than the peptide consisting only of arginine residues of the same number (R12)”, the “anti-prion activity at 10 nM” value (PrP^SC in ScN2a cells) was “remarkably superior anti-prion activity” and the “fold decrease of anti-prion activity compared to R12-β UNS” value (PrP^SC in ScN2a cells) was ≥ 14.5 times. For the same compound, the viability (in vitro) was ≥ 70%, the “zeta potential difference, acidic condition (pH 2-5.5) versus neutral condition” value ([2]; pH 2) was “+14 to 18 mV” and the zeta potential ([2]; pH 3) was “+40 mV”. The zeta potential ([2]; pH 5) was “+38 mV”, the zeta potential ([2]; pH 7) was “+24 mV” and the zeta potential ([2]; pH 11) was “+30 mV”.

For H-RR-ahx-FKFEFKFEFKFE-NH2 [Example 2], the “anti-prion activity (PK-resistant PrP^SC level by western blot)” value (PrP^SC in ScN2a cells) was “shows anti-prion activity, although weaker than that of the fusion peptide of Example 1”.
